pIC50: −log10 of the molar value. Entries after “also recorded” stand apart in the source; their conditions may differ. Where two headings read alike, the source gives them in different places.
Legend:
[1] = test system: Vero C1008 cells; conditions: high concentration of 1.95 g/L; cited from earlier work
[2] = test system: EBOV-Zaire type; conditions: virus titer in supernatant, Vero E6 cell line, read-out: half-inhibitory concentration (IC50); cited from earlier work
[3] = test system: SARS-CoV-2; format: cell-based, SARS-CoV-2 (nCoV-2019BetaCoV/Wuhan/WIV04/2019 strain)
[4] = cited from earlier work
[5] = test system: Vero E6 cells; conditions: Vero E6, 48 h
[6] = test system: SARS coronavirus; format: in vivo, A129 mice; conditions: for Death rate: once daily from 4 h to 144 h after challenge, 1*10^6 PFU; for Protection of SARS coronavirus-infected mice from death: intraperitoneal once a day from 4 hours after challenge, 50-200 mg/kg
[7] = test system: EBOV-Zaire type; conditions: drug concentration of above 62.5 mg/L; cited from earlier work
[8] = 300 mg/kg/d from day 6 to day 13, cited from earlier work

NC(=O)c1nc(F)cnc1O [Favipiravir, 6-fluoro-3-hydroxypyrazine-2-carboxamide]
Cytotoxicity to Vero C1008 cells [1]: not cytotoxic | pIC50 [2]: 4.17 | Reduction of viral RNA load in the cells [3]: the inhibitory activity is dose-dependent | Inhibition of replication of the SARS-CoV-2 virus genome in the infected supernatant ([3]; at concentrations of 100 μM, 33 μM, 11.1 μM and 3.7 μM): could effectively inhibit | Reduction of viral nucleic acid load in cells infected by SARS-CoV-2 ([3]; at micromolar concentration level): can reduce the viral nucleic acid load | mice protected from death ([4]; intragastric 300 mg/kg/d (2 times/d, 150 mg/kg per time) from 1 h after challenge for 14 days): 100% | body weight of the mice in the administration group ([4]; intragastric 300 mg/kg/d for 14 days): significantly improved | Cell viability (% of vehicle control) ([5]; 0.14 μM): 101.61 ± 0.74 % of vehicle control | Cell viability (% of vehicle control) ([5]; 0.41 μM): 101.38 ± 3.85 % of vehicle control | Cell viability (% of vehicle control) ([5]; 1.23 μM): 98.57 ± 1.90 % of vehicle control | Cell viability (% of vehicle control) ([5]; 3.70 μM): 99.09 ± 4.91 % of vehicle control | Cell viability (% of vehicle control) ([5]; 11.11 μM): 96.42 ± 4.77 % of vehicle control | Cell viability (% of vehicle control) ([5]; 33.33 μM): 95.21 ± 4.43 % of vehicle control | Cell viability (% of vehicle control) ([5]; 100 μM): 96.37 ± 1.26 % of vehicle control | Death rate ([6]; 50 mg/kg intraperitoneal): 100% | Death rate ([6]; 100 mg/kg intraperitoneal): 50% | Death rate ([6]; 200 mg/kg intraperitoneal): 0% | Protection of SARS coronavirus-infected mice from death [6]: can effectively protect mice; also recorded: the survival rate is dose-dependent | Protection of SARS coronavirus-infected mice from death ([6]; listed as compound represented by Formula I): significant protective effect | Inhibition of cytopathic effect (CPE) of EBOV-Zaire type [7]: completely inhibit | protection rate ([8]; challenge dose of 100% death of placebo group): 100% | body weight, glutamic-pyruvic transaminase, glutamic-oxalic transaminase, viremia [8]: improved significantly

From US11318135B2 (priority 2020, dated 2022)
